Test results published in patent US11253497B2, “Use of derivatives of polyunsaturated fatty acids as medicaments” (Lipopharma Therapeutics, S.L., priority 2009, dated 2022).

Columns and labels:
[1] = test system: breast cancer cells MDA-MB-231; experiment: Growth of breast cancer cells MDA-MB-231; type: cell-based; conditions: 72 hours of incubation
Experimental: (§1) For the experiments shown in FIG. 1, cultured human Non Small Cell Lung Cancer cells (A549) in RPMI 1640 were used, supplemented with 10% foetal bovine serum and antibiotics, at 37° C. and 5% CO2. […] After treatment, cell count was performed and the study of the mechanisms involved in the antitumor activity of compounds was evaluated by flow cytometry. […] These values correspond to averages of three independent experiments.
(§2) These charts show the antitumor efficacy of the compounds of this invention against the growth of breast cancer cells, brain (glioma), and lung cancer. […] The other experimental conditions are identical to those described in the preceding paragraph.

[2] = test system: brain cancer cell (glioma) U118; experiment: Brain cancer (glioma) U118 cell growth; type: cell-based; conditions: 72 hours of incubation
Experimental: For the experiments shown in FIG. 1, cultured human Non Small Cell Lung Cancer cells (A549) in RPMI 1640 were used, supplemented with 10% foetal bovine serum and antibiotics, at 37° C. and 5% CO2. Cells were maintained in culture for 48 hours in the presence or absence of D-PUFAs and PUFAs indicated in Table 2 at a concentration of 250 µM. After treatment, cell count was performed and the study of the mechanisms involved in the antitumor activity of compounds was evaluated by flow cytometry. […] These values correspond to averages of three independent experiments.
as §2

lung cancer cells A549 = experiment: Growth of lung cancer cells A549 (IC50); type: cell-based, human; conditions: 72 hours of incubation
Experimental: as §1, §2

[3] = Lamellar-to-hexagonal (HII) transition temperature in DEPE model membranes by Differential Scanning Calorimetry; type: physicochemical; conditions: DEPE membranes, DEPE:D-PUFA 10:1 (mol:mol)
Experimental: The transition temperature was determined by Differential Scanning Calorimetry. The proportion DEPE:D-PUFA was 10:1 (mol:mol) in all cases. Lamellar-to-hexagonal transition is an important parameter that reflects relevant signalling properties of cell membranes. […] When this occurs, certain peripheral membrane proteins (such as G proteins, protein kinase C or Ras protein) can more easily bind to the membrane, while others have a poor interaction (e.g., the Gα-protein), so changes in the HII transition temperature are important in regulating cellular functions related to health and human therapy (Escriba et al., 1995, Vogler et al., 2004; Escriba, 2006).
Control values correspond to model membranes in the absence of fatty acids. The reduction in HII transition temperature obtained by using the D-PUFA of the invention indicates an increased induction of membrane discontinuities, generating anchoring sites in the membrane for peripheral proteins and leads to better regulation of cell signalling and, therefore, greater effectiveness in the control of certain diseases.

| Compound | IC50 [1] [µM] | IC50 [2] [µM] | IC50 (lung cancer cells A549) [µM] | Temperature of lamellar-to-hexagonal transition [3] [°C] |
| --- | --- | --- | --- | --- |
| CCCCCC=CCC=CCCCCCCC(O)C(=O)O (stereo not drawn) [182C1] | 386 | 208 | 635 |  |
| CCCCCC=CCC=CCCCCCCC(O)C(=O)OC (stereo not drawn) [182D1] | 277 | 221 | 541 | 51 |
| CCCCCC=CCC=CCCCCCCC(O)C(=O)OCC (stereo not drawn) [182E1] | 289 | 213 | 387 | 50.6 |
| CCCCCC=CCC=CCCCCCCC(OC)C(=O)O (stereo not drawn) [182G1] | 378 | 205 | 439 | 51 |
| CCCCCC=CCC=CCCCCCCC(OC)C(=O)OC (stereo not drawn) [182H1] | 402 | 267 | 462 |  |
| CCCCCC=CCC=CCCCCCCC(OC)C(=O)OCC (stereo not drawn) [182I1] | 411 | 240 | 673 |  |
| CCCCCC=CCC=CCCCCCCC(C)C(=O)OC (stereo not drawn) [182M1] | 362 | 238 | 286 |  |
| CCCCCC=CCC=CCCCCCCC(Cl)C(=O)OCC (stereo not drawn) [182O1] | 286 |  | 452 | 51.7 |
| CCCCCC=CCC=CCCCCCCC(CO)C(=O)OCC (stereo not drawn) [182Q1] | 328 |  | 293 |  |
| CCCCCC=CCC=CCCCCCCC(OP(=O)(OCC)OCC)C(=O)OCC (stereo not drawn) [182R1] | 371 | 255 | 317 | 52.2 |
| CCCCCC=CCC=CCCCCCCC(F)C(=O)OCC (stereo not drawn) [182T1] | 391 | 214 | 379 |  |
| CCCCCC=CCC=CCCCCCCC(OC=O)C(=O)OC (stereo not drawn) [182U1] | 410 | 212 | 255 |  |
| CCCCCC=CCC=CCCCCCCC(C(=O)OCC)N(OCC)OCC (stereo not drawn) [182W1] | 391 | 246 | 416 |  |
| CCC=CCC=CCC=CCCCCCCC(O)C(=O)O (stereo not drawn) [183C1] | 289 |  | 281 |  |
| CCCCCC=CCC=CCC=CCCCC(O)C(=O)O (stereo not drawn) [183C2] | 168 | 379 | 241 |  |
| CCC=CCC=CCC=CCCCCCCC(O)C(=O)OC (stereo not drawn) [183D1] | 245 |  | 326 | 51.1 |
| CCCCCC=CCC=CCC=CCCCC(O)C(=O)OC (stereo not drawn) [183D2] | 175 | 385 | 267 | 49.4 |
| CCC=CCC=CCC=CCCCCCCC(O)C(=O)OCC (stereo not drawn) [183E1] | 319 |  | 294 | 49.8 |
| CCCCCC=CCC=CCC=CCCCC(O)C(=O)OCC (stereo not drawn) [183E2] | 193 |  | 243 | 49.3 |
| CCC=CCC=CCC=CCCCCCCC(OC)C(=O)O (stereo not drawn) [183G1] | 364 | 329 | 273 | 50.3 |
| CCC=CCC=CCC=CCCCCCCC(OC)C(=O)OC (stereo not drawn) [183H1] | 308 | 408 | 319 |  |
| CCCCCC=CCC=CCC=CCCCC(OC)C(=O)OC (stereo not drawn) [183H2] | 170 | 443 | 219 |  |
| CCCCCC=CCC=CCC=CCC=CCCC(O)C(=O)O (stereo not drawn) [204C1] | 389 | 287 | 521 |  |
| CCC=CCC=CCC=CCC=CCC=CCCC(O)C(=O)O (stereo not drawn) [205C1] | 223 | 442 | 325 |  |
| CCC=CCC=CCC=CCC=CCC=CCC=CCC(O)C(=O)O (stereo not drawn) [226C1] | 210 | 237 | 214 |  |

More lines, now with the values ahead:

| IC50 [1] [µM] | IC50 [2] [µM] | IC50 (lung cancer cells A549) [µM] | Temperature of lamellar-to-hexagonal transition [3] [°C] | Compound |
| --- | --- | --- | --- | --- |
| 274 | 321 | 348 |  | CCC=CCC=CCC=CCCCCCCC(OC)C(=O)OCC (stereo not drawn) [183I1] |
| 210 | 432 | 276 |  | CCCCCC=CCC=CCC=CCCCC(OC)C(=O)OCC (stereo not drawn) [183I2] |
| 407 | 349 | 322 |  | CCC=CCC=CCC=CCCCCCCC(C)C(=O)OC (stereo not drawn) [183M1] |
| 164 | 407 | 248 |  | CCCCCC=CCC=CCC=CCCCC(C)C(=O)OC (stereo not drawn) [183M2] |
| 217 |  | 318 | 51.3 | CCCCCC=CCC=CCC=CCCCC(Cl)C(=O)OCC (stereo not drawn) [183O2] |
| 312 | 282 | 273 |  | CCC=CCC=CCC=CCCCCCCC(CO)C(=O)OCC (stereo not drawn) [183Q1] |
| 205 | 392 | 314 |  | CCCCCC=CCC=CCC=CCCCC(CO)C(=O)OCC (stereo not drawn) [183Q2] |
| 290 | 368 | 367 |  | CCC=CCC=CCC=CCCCCCCC(F)C(=O)OCC (stereo not drawn) [183T1] |
| 216 | 423 | 279 |  | CCCCCC=CCC=CCC=CCCCC(F)C(=O)OCC (stereo not drawn) [183T2] |
| 344 | 343 | 294 |  | CCC=CCC=CCC=CCCCCCCC(OC=O)C(=O)OC (stereo not drawn) [183U1] |
| 228 | 380 | 287 |  | CCCCCC=CCC=CCC=CCCCC(OC=O)C(=O)OC (stereo not drawn) [183U2] |
| 311 |  | 352 |  | CCC=CCC=CCC=CCCCCCCC(C(=O)OCC)N(OCC)OCC (stereo not drawn) [183W1] |
| 203 | 438 | 212 |  | CCCCCC=CCC=CCC=CCCCC(C(=O)OCC)N(OCC)OCC (stereo not drawn) [183W2] |
| 363 | 263 | 398 |  | CCCCCC=CCC=CCC=CCC=CCCC(OC)C(=O)OC (stereo not drawn) [204H1] |
| 315 | 328 | 459 |  | CCCCCC=CCC=CCC=CCC=CCCC(OC)C(=O)OCC (stereo not drawn) [204I1] |
| 285 | 296 | 362 |  | CCCCCC=CCC=CCC=CCC=CCCC(OC(C)=O)C(=O)OC (stereo not drawn) [204J1] |
| 321 | 309 | 375 |  | CCCCCC=CCC=CCC=CCC=CCCC(C)C(=O)OC (stereo not drawn) [204M1] |
| 298 |  | 461 | 49.7 | CCCCCC=CCC=CCC=CCC=CCCC(Cl)C(=O)OCC (stereo not drawn) [204O1] |

| IC50 [1] [µM] | IC50 [2] [µM] | IC50 (lung cancer cells A549) [µM] | Temperature of lamellar-to-hexagonal transition [3] [°C] | Compound |
| --- | --- | --- | --- | --- |
| 306 | 324 | 348 |  | CCCCCC=CCC=CCC=CCC=CCCC(CO)C(=O)OCC (stereo not drawn) [204Q1] |
| 317 | 385 | 352 |  | CCCCCC=CCC=CCC=CCC=CCCC(F)C(=O)OCC (stereo not drawn) [204T1] |
| 369 | 263 | 270 |  | CCCCCC=CCC=CCC=CCC=CCCC(OC=O)C(=O)OC (stereo not drawn) [204U1] |
| 311 | 287 | 341 |  | CCCCCC=CCC=CCC=CCC=CCCC(C(=O)OCC)N(OCC)OCC (stereo not drawn) [204W1] |
| 282 | 439 | 290 |  | CCC=CCC=CCC=CCC=CCC=CCCC(OC)C(=O)OC (stereo not drawn) [205H1] |
| 261 | 510 | 351 |  | CCC=CCC=CCC=CCC=CCC=CCCC(OC)C(=O)OCC (stereo not drawn) [205I1] |
| 216 | 462 | 293 |  | CCC=CCC=CCC=CCC=CCC=CCCC(C)C(=O)OC (stereo not drawn) [205M1] |
| 264 |  | 418 | 48.6 | CCC=CCC=CCC=CCC=CCC=CCCC(Cl)C(=O)OCC (stereo not drawn) [205O1] |
| 247 | 419 | 365 |  | CCC=CCC=CCC=CCC=CCC=CCCC(CO)C(=O)OCC (stereo not drawn) [205Q1] |
| 233 | 427 | 322 |  | CCC=CCC=CCC=CCC=CCC=CCCC(F)C(=O)OCC (stereo not drawn) [205T1] |
| 272 | 454 | 426 |  | CCC=CCC=CCC=CCC=CCC=CCCC(OC=O)C(=O)OC (stereo not drawn) [205U1] |
| 256 | 443 | 420 |  | CCC=CCC=CCC=CCC=CCC=CCCC(C(=O)OCC)N(OCC)OCC (stereo not drawn) [205W1] |
| 199 | 294 | 247 |  | CCC=CCC=CCC=CCC=CCC=CCC=CCC(OC)C(=O)OC (stereo not drawn) [226H1] |
| 241 | 327 | 298 |  | CCC=CCC=CCC=CCC=CCC=CCC=CCC(OC)C(=O)OCC (stereo not drawn) [226I1] |
| 267 | 306 | 208 |  | CCC=CCC=CCC=CCC=CCC=CCC=CCC(C)C(=O)OC (stereo not drawn) [226M1] |
| 263 | 254 | 252 |  | CCC=CCC=CCC=CCC=CCC=CCC=CCC(CO)C(=O)OCC (stereo not drawn) [226Q1] |
| 199 | 263 | 243 |  | CCC=CCC=CCC=CCC=CCC=CCC=CCC(F)C(=O)OCC (stereo not drawn) [226T1] |
